How the values were obtained:
[1] = test system: MCF-7 cells; assay: CCK-8 antiproliferative assay, MCF-7; format: cell-based; conditions: Homo sapiens, MCF7; cell viability (CCK-8), 48 h
Procedure: To evaluate the anticancer potential of the synthesized compounds, a panel of six human and murine cancer cell lines representing different tissue origins was selected, including MCF-7 (human breast adenocarcinoma), MDA-MB-231 (human triple-negative breast cancer), A549 (human non-small cell lung cancer), HeLa (human cervical cancer), A375 (human melanoma), and B16-F10 (murine melanoma) (Table 2). […] DMSO was used as the vehicle control, and all experiments were performed in triplicate to ensure reproducibility.
Human breast cancer cells (MCF-7), human lung cancer cells (A549), human cervical cancer cells (HeLa), human triple-negative breast cancer cells (MDA-MB-231), and human malignant melanoma cells (A375) were cultured in DMEM. Mouse melanoma cells (B16F10) were maintained in RPMI-1640 medium. All media were supplemented with 10% fetal bovine serum and 1% penicillin-streptomycin (Life Technologies, Carlsbad, CA, USA) and maintained at 37 °C in a humidified atmosphere with 5% CO2.
The cytotoxicity of the test compounds was evaluated against MCF-7, A549, HeLa, MDA-MB-231, A375, and B16F10 using the CCK-8 assay. Cells were seeded into 96-well plates at a density of 5000 cells/well. After removing the medium, 100 μL of medium with 0.1% DMSO containing test compounds at different concentrations was added to each well and incubated at 37 °C for another 48 h. The CCK-8 solution was added and incubated for another 1 h, and then, the absorbance was detected with a microplate reader at a wavelength of 450 nm. The IC50 values were calculated by nonlinear regression analysis using GraphPad Prism 8.0.2. All the experiments were repeated at least three times.

[2] = molecular target: T1, Porcine brain tubulin protein (Sus scrofa, UniProt P02554); assay: In vitro tubulin polymerization assay; format: biochemical
T1 construct: Porcine brain tubulin protein was dissolved in EM buffer; from tissue; host or cells: porcine brain
T1 sequence (P02554 whole entry): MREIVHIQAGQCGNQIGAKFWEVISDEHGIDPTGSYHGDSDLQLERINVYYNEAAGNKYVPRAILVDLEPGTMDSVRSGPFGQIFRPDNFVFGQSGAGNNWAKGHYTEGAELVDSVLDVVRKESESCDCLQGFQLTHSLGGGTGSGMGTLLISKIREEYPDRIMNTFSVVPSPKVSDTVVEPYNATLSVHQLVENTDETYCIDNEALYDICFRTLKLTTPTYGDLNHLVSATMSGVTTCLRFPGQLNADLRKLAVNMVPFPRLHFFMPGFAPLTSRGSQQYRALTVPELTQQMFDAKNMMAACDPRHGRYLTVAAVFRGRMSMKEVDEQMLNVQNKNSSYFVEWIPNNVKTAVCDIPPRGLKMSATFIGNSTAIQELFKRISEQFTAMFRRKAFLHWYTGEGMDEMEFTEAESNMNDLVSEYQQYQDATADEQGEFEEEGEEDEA
T1 sequence (P02550 whole entry partner): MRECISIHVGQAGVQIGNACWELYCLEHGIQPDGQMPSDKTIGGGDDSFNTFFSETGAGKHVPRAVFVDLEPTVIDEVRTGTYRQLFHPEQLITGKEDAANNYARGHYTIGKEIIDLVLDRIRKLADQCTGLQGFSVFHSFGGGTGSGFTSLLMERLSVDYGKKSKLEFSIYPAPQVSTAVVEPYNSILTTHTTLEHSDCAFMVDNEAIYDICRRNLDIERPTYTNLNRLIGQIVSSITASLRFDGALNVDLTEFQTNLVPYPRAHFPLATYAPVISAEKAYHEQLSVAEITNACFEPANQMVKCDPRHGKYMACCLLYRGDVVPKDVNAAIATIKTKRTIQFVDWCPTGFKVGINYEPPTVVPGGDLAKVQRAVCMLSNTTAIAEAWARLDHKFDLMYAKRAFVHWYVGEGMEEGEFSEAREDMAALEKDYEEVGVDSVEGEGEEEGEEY
Procedure: The ability of compound 3g to disrupt microtubule dynamics was assessed using an in vitro tubulin polymerization assay.
Porcine brain tubulin protein was dissolved in EM buffer containing 5% glycerol (80 mM PIPES, 2 mM GTP, 2 mM MgCl2, and 0.5 mM EGTA, pH 6.9). Compounds were diluted in EM buffer to final concentrations of 50, 25, 10, 5, and 2.5 μM and added to a pre-warmed 384-well plate, followed by pre-incubation at 37 °C. Subsequently, 14 μL of the tubulin-GTP mixture was added to each well containing the test compounds. Tubulin polymerization was monitored by measuring absorbance at 340 nm every minute for 60 min. […] Each assay was performed in triplicate.
Absorbance at 340 nm was determined every 1 min.

COc1cc(-n2ccc3ccc(-c4ccc(C)c(C#N)c4)cc32)cc(OC)c1OC [3g, 2-methyl-5-(1-(3,4,5-trimethoxyphenyl)-1H-indol-6-yl)benzonitrile]
IC50 [1]: 2940 ± 560 nM | effect on tubulin assembly ([2]; 50 μM): markedly suppressed tubulin assembly | effect on tubulin polymerization ([2]; 2.5–50 μM, absorbance at 340 nm): inhibited tubulin polymerization in a concentration-dependent manner

— article PMC12693167, “Design, Synthesis and Anticancer Activity of 6-Substituted-1-(3,4,5-trimethoxyphenyl)-1H-indole Against Tubulin Polymerisation” (Molecules, 2025)
